Data: ChEMBL document CHEMBL4819014, “Design, synthesis and biological evaluation of imidazole and triazole-based carbamates as novel aromatase inhibitors” (Eur J Med Chem, 2021)
One block for each compound: values may come before it. The source made the active and inactive calls. The calls are words filed in the database; no cut-off is given here.

How the values were obtained:
CYP19A (aromatase) = target: T1, CYP19A (aromatase) (Homo sapiens, UniProt P11511); assay: Inhibition of human CYP19A at 1 uM measured every 1 min for 60 mins by flourimetric assay
T1 sequence (P11511 whole entry): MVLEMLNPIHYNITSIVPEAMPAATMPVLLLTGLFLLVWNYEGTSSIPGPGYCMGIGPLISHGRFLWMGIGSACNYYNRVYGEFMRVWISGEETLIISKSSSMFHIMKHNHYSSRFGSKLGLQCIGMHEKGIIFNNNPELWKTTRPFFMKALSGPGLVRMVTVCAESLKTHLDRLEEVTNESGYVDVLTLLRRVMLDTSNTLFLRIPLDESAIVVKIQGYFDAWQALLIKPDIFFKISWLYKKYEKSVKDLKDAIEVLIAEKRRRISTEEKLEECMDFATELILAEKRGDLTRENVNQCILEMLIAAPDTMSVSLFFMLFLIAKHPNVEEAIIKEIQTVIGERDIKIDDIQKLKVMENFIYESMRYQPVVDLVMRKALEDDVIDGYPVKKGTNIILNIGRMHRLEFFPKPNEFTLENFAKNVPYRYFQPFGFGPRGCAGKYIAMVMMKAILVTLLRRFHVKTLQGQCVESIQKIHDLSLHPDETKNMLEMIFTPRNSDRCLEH

MCF7 [1] = assay: Cytotoxicity against human MCF7 cells assessed as lactate dehydrogenase activity at 250 uM measured after 24 hrs by microplate reader method relative to control; format: functional
MCF7 [2] = assay: Cytotoxicity against human MCF7 cells assessed as metabolic activity measured after 48 hrs by MTT assay; format: functional, cell-based; conditions: dose 10-250 µM
MCF7 [3] = assay: Cytotoxicity against human MCF7 cells assessed as lactate dehydrogenase activity measured after 24 hrs by microplate reader method relative to control; format: functional
MCF7 [4] = assay: Cytotoxicity against human MCF7 cells assessed as metabolic activity at 10 to 250 uM measured after 24 hrs by MTT assay; format: functional; conditions: dose 10-250 µM
MCF7 [5] = assay: Induction of cell cycle arrest in human MCF7 cells assessed as accumulation of cells in S phase measured after 24 hrs by PI staining based flow cytometry method; format: functional; conditions: dose 10-250 µM
Aromatase = target: T2, Aromatase (Homo sapiens, UniProt P11511); assay: Inhibition of human CYP19A measured every 1 min for 60 mins by flourimetric assay
T2 sequence (P11511 whole entry): T1 sequence (P11511 whole entry)

MCF7 [6] = assay: Induction of cell cycle arrest in human MCF7 cells assessed as decrease in accumulation of cells in G1 phase at 100 to 250 uM measured after 24 hrs by PI staining based flow cytometry method; format: functional; conditions: dose 100-250 µM
MCF7 [7] = assay: Induction of cell cycle arrest in human MCF7 cells assessed as accumulation of cells in G2/M phase at 100 to 250 uM measured after 24 hrs by PI staining based flow cytometry method; format: functional; conditions: dose 100-250 µM
MCF7 [8] = assay: Cytotoxicity against human MCF7 cells assessed as metabolic activity at 50 uM measured after 72 hrs by MTT assay; format: functional
MCF7 [9] = assay: Cytotoxicity against human MCF7 cells assessed as metabolic activity at 25 uM measured after 72 hrs by MTT assay; format: functional
MCF7 [10] = assay: Cytotoxicity against human MCF7 cells assessed as metabolic activity at 100 uM measured after 48 hrs by MTT assay; format: functional
MCF7 [11] = assay: Cytotoxicity against human MCF7 cells assessed as metabolic activity at 10 uM measured after 24 hrs by MTT assay; format: functional
MCF7 [12] = assay: Cytotoxicity against human MCF7 cells assessed as metabolic activity at 250 uM measured after 48 hrs by MTT assay; format: functional
MCF7 [13] = assay: Cytotoxicity against human MCF7 cells assessed as metabolic activity at 10 uM measured after 72 hrs by MTT assay; format: functional

Compound: O=C(Nc1ccc(Cl)cc1)OC(Cn1ccnc1)c1ccccc1 (stereo not drawn)
inhibition at 1 h, 1 µM (CYP19A (aromatase)): 62%

Compound: O=C(Nc1ccccc1)OC(COc1ccc(Cl)cc1)Cn1cncn1 (stereo not drawn)
inhibition at 1 h, 1 µM (CYP19A (aromatase)): 46%

Compound: COc1ccc(NC(=O)OC(COc2ccccc2)Cn2ccnc2)c(OC)c1 (stereo not drawn)
inhibition at 1 h, 1 µM (CYP19A (aromatase)): 25%

Compound: COc1ccc(OCC(Cn2cncn2)OC(=O)Nc2ccc(Cl)cc2)cc1 (stereo not drawn)
inhibition at 1 h, 1 µM (CYP19A (aromatase)): 49%

Compound: O=C(NCc1ccccc1)OC(Cn1ccnc1)c1ccccc1 (stereo not drawn)
fold change (FC) (MCF7 [1]): 4.8
inhibition at 1 h, 1 µM (CYP19A (aromatase)): 81%
Activity (MCF7 [9]): 55.06%
fold change (FC) (MCF7 [3]): 4
Activity (MCF7 [10]): 10.39%
Activity (MCF7 [5]): Dose-Dependent Effect
Activity (MCF7 [11]): 43.67%
Activity (MCF7 [12]): 30.75%
IC50 (Aromatase): 0.82 µM
Activity (MCF7 [13]): 50.16%
Activity (MCF7 [8]): 46.7%

Continued, in another order:

inhibition at 1 h, 1 µM (CYP19A (aromatase)): 27%
Compound: O=C(Nc1ccccc1)OC(COc1ccccc1)Cn1ccnc1 (stereo not drawn)

inhibition at 1 h, 1 µM (CYP19A (aromatase)): 72%
IC50 (Aromatase): 0.86 µM
Compound: O=C(Nc1ccc(Cl)cc1)OC(COc1ccccc1)Cn1ccnc1 (stereo not drawn)
fold change (FC) (MCF7 [1]): 4.8
Activity (MCF7 [2]): Dose-Dependent Effect
fold change (FC) (MCF7 [3]): 4
Activity (MCF7 [4]): 50%
Activity (MCF7 [5]): Dose-Dependent Effect
Activity (MCF7 [6]): Active
Activity (MCF7 [7]): Active
Activity (MCF7 [8]): 25.18%

inhibition at 1 h, 1 µM (CYP19A (aromatase)): 61%
Compound: O=C(Nc1ccccc1)OC(Cn1ccnc1)c1ccccc1 (stereo not drawn)

inhibition at 1 h, 1 µM (CYP19A (aromatase)): 61%
Compound: COc1ccc(NC(=O)OC(COc2ccccc2)Cn2ccnc2)cc1 (stereo not drawn)
